What all share (assay type): functional
In test [1] the test system is Candida albicans. In words: Antifungal activity against Candida albicans ATCC 90028 at 100 uM after 24 hrs by PrestoBlue dye based microdilution broth assay relative to control. As to conditions: ATCC 90028, 24 h.
The subject of test [2] is Candida albicans. In words: Antibiofilm activity against Candida albicans ATCC 90028 intermediate phase biofilm at 2 ug/ml after 24 hrs by calcofluor white dye based fluorescent microscopic analysis.
The subject of a further test is Candida tropicalis. Kind of test: Antifungal activity against Candida tropicalis ATCC 750 after 24 hrs by PrestoBlue dye based microdilution broth assay. The conditions noted are these: ATCC 750, 24 h. (In broth dilution the organism is exposed to a series of concentrations in liquid medium.)
The next test concerns Nakaseomyces glabratus. Kind of test: Antifungal activity against Candida glabrata ATCC 66032 after 24 hrs by PrestoBlue dye based microdilution broth assay. The conditions noted are these: ATCC 66032, 24 h.
The test system of test [3] is Candida albicans. Kind of test: Antifungal activity against Candida albicans ATCC 90028 after 24 hrs by PrestoBlue dye based microdilution broth assay. The conditions noted are these: ATCC 90028, 24 h.
The test system of test [4] is Candida albicans. Kind of test: Antibiofilm activity against Candida albicans ATCC 90028 intermediate phase biofilm at antifungal IC50 to IC99 after 24 hrs by calcofluor white dye based fluorescent microscopic analysis.
For test [5], the system named is Candida albicans. In words: Antibiofilm activity against Candida albicans ATCC 90028 intermediate phase biofilm at 16 ug/ml after 24 hrs by calcofluor white dye based fluorescent microscopic analysis.
Test [6] relates to Candida albicans. In words: Antibiofilm activity against Candida albicans ATCC 90028 intermediate phase biofilm at 100 ug/ml after 24 hrs by calcofluor white dye based fluorescent microscopic analysis.

As usually defined, the inhibition is the drop in the measured response relative to a control, in per cent. The low end stands for a weak effect, the high end for a strong effect. Broadly, the IC50 is the concentration that inhibits the measured activity by half. As a reminder, the IC99 is the concentration needed for an effect of 99%.

Calls of active or inactive are those of the source. The rule behind the calls is not given here.

In turn, `COc1cc(/C=C2\Oc3ccccc3C2=O)ccc1O` had an inhibition at 100 µM with Candida albicans [1] of 11.2%.

As to `O=C1/C(=C/c2ncc[nH]2)Oc2ccccc21`, in the test on Candida albicans [1], 100 µM produced 43.9% inhibition.

Take `C[C@@H]1[C@H](O)[C@@H](C)/C=C/C=C/C=C/C=C/C=C/C=C/C=C/[C@H](O[C@@H]2O[C@H](C)[C@@H](O)[C@H](N)[C@@H]2O)C[C@@H]2O[C@](O)(C[C@@H](O)C[C@@H](O)[C@H](O)CC[C@@H](O)C[C@@H](O)CC(=O)O[C@H]1C)C[C@H](O)[C@H]2C(=O)O`: the outcome in the test on Candida albicans [2] was Active.

In turn, `COc1cc(Br)c(/C=C2\Oc3ccccc3C2=O)cc1OC` returned an inhibition at 100 µM in the test with Candida albicans [1] of 12.5%.

`O=C1/C(=C/c2ccccc2O)Oc2ccccc21` showed an inhibition at 100 µM with Candida albicans [1] of 1%.

For `O=C1/C(=C/c2ccc[nH]2)Oc2ccccc21`, in the test with Candida albicans [1], the inhibition at 100 µM was found to be 78.8%.

The molecule `O=C1/C(=C/c2cccs2)Oc2c1ccc(O)c2O` had an inhibition at 100 µM in the test with Candida albicans [1] of 26%.

In the test with Candida albicans [1], `COc1ccc(/C=C2\Oc3ccccc3C2=O)cc1O` gave an inhibition at 100 µM of 45.6%.

Molecule `O=C1/C(=C/c2ccc[nH]2)Oc2c1ccc(O)c2O` displayed an inhibition at 100 µM in the test with Candida albicans [1] of 27.5%.

As to `COc1ccc(/C=C2\Oc3ccccc3C2=O)cc1OC` [3',4'-DIMETHOXY-AURONE], the inhibition at 100 µM with Candida albicans [1] is 14.2%.

As for `COc1cccc(/C=C2\Oc3ccccc3C2=O)c1O`, testing at 100 µM with Candida albicans [1] gave an inhibition of 16.7%.

Take `COc1ccc(/C=C2\Oc3cc(O)ccc3C2=O)cc1O`: in the test on Candida albicans [1], testing at 100 µM gave an inhibition of 40%.

In the case of `O=C1/C(=C/c2ccccn2)Oc2ccccc21`, the 50% inhibitory concentration (IC50) in the test with Candida tropicalis was 12 µM; in the test on Nakaseomyces glabratus, 10 µM; in the test with Candida albicans [3] it was 18 µM. In addition, the outcome in the test on Candida albicans [4] was inactive.

In the case of `COc1ccc(/C=C2\Oc3c(ccc(O)c3O)C2=O)cc1O`, the figures for the IC50 in the test on Candida tropicalis, in the test on Nakaseomyces glabratus and in the test on Candida albicans [3] were 10 µM, 11 µM and 16 µM, respectively. The molecule further returned an IC99 in the test on Candida albicans [3] of 100 µM. Also, the result in the test on Candida albicans [5] was inactive. Moreover, the outcome with Candida albicans [6] was Active. The inhibition at 100 µM in the test on Candida albicans [1] was 99.4%.

The record behind these values is ChEMBL document CHEMBL4002617, “Antifungal activity of substituted aurones” (Bioorg Med Chem Lett, 2017).
